Source: US10485795B2, “FXR (NR1H4) binding and activity modulating compounds” (Gilead Sciences, Inc., priority 2011, dated 2019)
Read-outs that look alike come from different tables or passages of the source.

Legend:
[1] = target: T1, human FXR alpha ligand binding domain (Homo sapiens, UniProt Q96RI1); experiment: FRET activity assay (ligand mediated cofactor peptide interaction); assay type: biochemical
T1 construct: made in house; host or cells: E. coli BL21(DE3), vector pDEST15
T1 sequence (Q96RI1 187-472 isoform Q96RI1-2): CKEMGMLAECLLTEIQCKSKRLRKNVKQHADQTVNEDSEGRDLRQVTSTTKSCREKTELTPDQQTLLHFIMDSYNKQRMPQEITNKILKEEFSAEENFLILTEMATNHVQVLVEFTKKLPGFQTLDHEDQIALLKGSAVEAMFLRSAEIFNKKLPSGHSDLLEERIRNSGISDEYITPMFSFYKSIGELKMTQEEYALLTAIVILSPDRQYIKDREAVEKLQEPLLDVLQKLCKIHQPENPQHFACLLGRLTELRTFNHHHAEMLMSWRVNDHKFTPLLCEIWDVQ
Description: Determination of a ligand mediated cofactor peptide interaction to quantify ligand binding to the nuclear receptor FXR was performed as follows: Preparation of human FXR alpha ligand binding domain: The human FXRalpha LBD was expressed in E. coli strain BL21(DE3) as an N-terminally GST tagged fusion protein. The DNA encoding the FXR ligand binding domain was cloned into vector pDEST15 (Invitrogen). Expression was under control of an IPTG inducible T7 promoter. The amino acid boundaries of the ligand binding domain were amino acids 187-472 of Database entry NM_005123 (RefSeq). Expression and purification of the FXR-LBD: An overnight preculture of a transformed E. coli strain was diluted 1:20 in LB-Ampicillin medium and grown at 30° C. to an optical density of OD600=0.4-0.6. Gene expression was then induced by addition of 0.5 mM IPTG. Cells were incubated an additional 6 h at 30° C., 180 rpm. Cells were collected by centrifugation (7000×g, 7 min, rt). Per liter of original cell culture, cells were resuspended in 10 mL lysis buffer (50 mM Glucose, 50 mM Tris pH 7.9, 1 mM EDTA and 4 mg/mL lysozyme) and left on ice for 30 min. Cells were then subjected to sonication and cell debris removed via centrifugation (22000×g, 30 min, 4° C.). Per 10 mL of supernatant 0.5 mL prewashed Glutathione 4B sepharose slurry (Qiagen) was added and the suspension kept slowly rotating for 1 h at 4° C. Glutathione 4B sepharose beads were pelleted by centrifugation (2000×g, 15 sec, 4° C.) and washed twice in wash buffer (25 mM Tris, 50 mM KCl, 4 mM MgCl2 and 1M NaCl). The pellet was resuspended in 3 mL elution buffer per liter of original culture (elution buffer: 20 mM Tris, 60 mM KCl, 5 mM MgCl2 and 80 mM glutathione added immediately prior to use as powder). The suspension was left rotating for 15 min at 4° C., the beads pelleted and eluted again with half the volume of elution buffer than the first time. The eluates were pooled and dialysed overnight in 20 mM Hepes buffer (pH 7.5) containing 60 mM KCl, 5 mM MgCl2 as well as 1 mM dithiothreitol and 10% (v/v) glycerol. The protein was analysed by SDS-Page.
The method measures the ability of putative ligands to modulate the interaction between the purified bacterial expressed FXR ligand binding domain (LBD) and a synthetic biotinylated peptide based on residues 676-700 of SRC-1 (LCD2, 676-700). The sequence of the peptide used was B-[…]-COOH where the N-terminus was biotinylated (B). The ligand binding domain (LBD) of FXR was expressed as fusion protein with GST in BL-21 cells using the vector pDEST15. Cells were lysed by sonication, and the fusion proteins purified over glutathione sepharose (Pharmacia) according to the manufacturers instructions. For screening of compounds for their influence on the FXR-peptide interaction, the Perkin Elmer LANCE technology was applied. This method relies on the binding dependent energy transfer from a donor to an acceptor fluorophor attached to the binding partner of interest. For ease of handling and reduction of background from compound fluorescence LANCE technology makes use of generic fluorophore labels and time resolved detection Assays were done in a final volume of 25 μL in a 384 well plate, in a Tris-based buffer (20 mM Tris-HCl pH 7.5; 60 mM KCl, 5 mM MgCl2; 35 ng/μL BSA), containing 20-60 ng/well recombinantly expressed FXR-LBD fused to GST, 200-600 nM N-terminally biotinylated peptide, representing SRC1 aminoacids 676-700, 200 ng/well Streptavidin-xIAPC conjugate (Prozyme) and 6-10 ng/well Eu W1024-antiGST (Perkin Elmer). DMSO content of the samples was kept at 1%. After generation of the assay mix and diluting the potentially FXR modulating ligands, the assay was equilibrated for 1 h in the dark at rt in FIA-plates black 384 well (Greiner). The LANCE signal was detected by a Perkin Elmer VICTOR2VTM Multilabel Counter. The results were visualized by plotting the ratio between the emitted light at 665 and 615 nm. […]

[2] = target: T2, FXR ligand binding domain (Homo sapiens, UniProt Q96RI1); experiment: Mammalian One Hybrid (M1H) assay, Gal4 reporter in HEK293 cells; assay type: cell-based
T2 construct: expressed in transfected cells; host or cells: HEK293 (DSMZ), transient transfection with a pCMV-BD construct
T2 sequence (Q96RI1 187-472 isoform Q96RI1-2): T1 sequence (Q96RI1 187-472 isoform Q96RI1-2)
Description: Determination of a ligand mediated Gal4 promoter driven transactivation to quantify ligand binding mediated activation of FXR was performed as follows: The cDNA part encoding the FXR ligand binding domain was cloned into vector pCMV-BD (Stratagene) as a fusion to the yeast GAL4 DNA binding domain under the control of the CMV promoter. […] The plasmid pFR-Luc (Stratagene) was used as the reporter plasmid, containing a synthetic promoter with five tandem repeats of the yeast GAL4 binding sites, driving the expression of the Photinus pyralis (American firefly) luciferase gene as the reporter gene. In order to improve experimental accuracy the plasmid pRL-CMV (Promega) was cotransfected. pRL-CMV contains the constitutive CMV promoter, controlling the expression of the Renilla reniformis luciferase. All Gal4 reporter gene assays were done in HEK293 cells (obtained from DSMZ, Braunschweig, Germany) grown in MEM with L-Glutamine and Earle's BSS supplemented with 10% fetal bovine serum, 0.1 mM nonessential amino acids, 1 mM sodium pyruvate, and 100 units Penicillin/[…] per mL at 37° C. in 5% CO2. Medium and supplements were obtained from Invitrogen. For the assay, […] were plated per well in 96 well plates in 100 μL per well MEM without Phenol Red and L-Glutamine and with Earle's BSS supplemented with 10% charcoal/dextran treated FBS (HyClone, South Logan, Utah), 0.1 mM nonessential amino acids, 2 mM glutamine, 1 mM sodium pyruvate, and 100 units Penicillin/[…] per mL, incubated at 37° C. in 5% CO2. The following day the cells were >90% confluence. […] MEM with the same composition as used for plating cells was added 2-4 h after addition of transfection mixture. Then compound stocks, prediluted in MEM were added (final vehicle concentration not exceeding 0.1%). […] All experiments were done in triplicates.

[3] = FXR-LBD/SRC-1 peptide interaction, LANCE, read-out: EC50 (Group), FRET activity assay
[4] = Gal4-FXR LBD transactivation, HEK293 cells, read-out: EC50 potency range (Group), M1H assay

EC50 [1, 3] | EC50 [2, 4] | EC50 [1] | EC50 [2] | SMILES
> 0.1 µM | > 0.1 µM | – | – | Cc1cc(C2CC(O)(c3ccc(OCc4c(-c5c(Cl)cccc5Cl)noc4C4CC4)cc3Cl)C2)cc(C)c1C(=O)O (single isomer, unassigned) [13/2]
0.025 to 0.1 µM | 0.025 to 0.1 µM | – | – | COc1ccc(C(=O)O)cc1C1CC(O)(c2ccc(OCc3c(-c4c(Cl)cccc4Cl)noc3C3CC3)cc2Cl)C1 (single isomer, unassigned) [13/3]
0.025 to 0.1 µM | < 0.025 µM | – | – | Cc1ccc(C(=O)O)cc1C1CC(O)(c2ccc(OCc3c(-c4c(Cl)cccc4Cl)noc3C3CC3)cc2Cl)C1 (single isomer, unassigned) [13/4]
0.025 to 0.1 µM | < 0.025 µM | – | – | Cc1cc(C(=O)O)cc(C2CC(O)(c3ccc(OCc4c(-c5c(Cl)cccc5Cl)noc4C4CC4)cc3Cl)C2)c1 (single isomer, unassigned) [13/5]
> 0.1 µM | < 0.025 µM | – | – | Cc1ccc(C2CC(O)(c3ccc(OCc4c(-c5c(Cl)cccc5Cl)noc4C4CC4)cc3Cl)C2)cc1C(=O)O (single isomer, unassigned) [13/6]
0.025 to 0.1 µM | 0.025 to 0.1 µM | – | – | O=C(O)c1cccc(N2CC(O)(c3ccc(OCc4c(-c5c(Cl)cccc5Cl)noc4C4CC4)cc3Cl)C2)c1 (single isomer, unassigned) [13/7]
< 0.025 µM | > 0.1 µM | – | – | O=C(O)c1cncc(N2CC(O)(c3ccc(OCc4c(-c5c(Cl)cccc5Cl)noc4C4CC4)cc3Cl)C2)c1 (single isomer, unassigned) [13/8]
– | – | < 0.025 µM | > 0.1 µM | O=C(O)c1ccnc(N2CC(O)(c3ccc(OCc4c(-c5c(Cl)cccc5Cl)noc4C4CC4)cc3Cl)C2)c1 (single isomer, unassigned) [13/9]
0.025 to 0.1 µM | 0.025 to 0.1 µM | – | – | O=C(O)c1ccc(C2CC(O)(c3ccc(OCc4c(-c5c(Cl)cccc5Cl)noc4C4CC4)cc3Cl)C2)cc1 (single isomer, unassigned) [Example 13/1]
< 0.025 µM | – | – | – | CC(C)n1nc(C(=O)NCCS(=O)(=O)O)cc1C1CC(O)(c2ccc(OCc3c(-c4c(Cl)cccc4Cl)noc3C3CC3)cc2Cl)C1 (stereo not shown) [14/2]
0.025 to 0.1 µM | > 0.1 µM | – | – | COC(=O)c1cccc([C@H]2C[C@](O)(c3ccc(OCc4c(-c5c(Cl)cccc5Cl)noc4C4CC4)cc3Cl)C2)c1 [Example 1, Methyl 3-((1s,3s)-3-(2-chloro-4-((5-cyclopropyl-3-(2,6-dichlorophenyl)isoxazol-4-yl)methoxy)phenyl)-3-hydroxycyclobutyl)benzoate]
0.025 to 0.1 µM | 0.025 to 0.1 µM | – | – | O=C(O)c1cccc([C@H]2C[C@](O)(c3ccc(OCc4c(-c5c(Cl)cccc5Cl)noc4C4CC4)cc3Cl)C2)c1 [Example 2, 3-((1s,3s)-3-(2-Chloro-4-((5-cyclopropyl-3-(2,6-dichlorophenyl)isoxazol-4-yl)methoxy)phenyl)-3-hydroxycyclobutyl)benzoic Acid]
< 0.025 µM | > 0.1 µM | – | – | CS(=O)(=O)NC(=O)c1cccc([C@H]2C[C@](O)(c3ccc(OCc4c(-c5c(Cl)cccc5Cl)noc4C4CC4)cc3Cl)C2)c1 [Example 4, 3-((1s,3s)-3-(2-Chloro-4-((5-cyclopropyl-3-(2,6-dichlorophenyl)isoxazol-4-yl)methoxy)phenyl)-3-hydroxycyclobutyl)-N-(methylsulfonyl)benzamide]
0.025 to 0.1 µM | > 0.1 µM | – | – | NS(=O)(=O)c1cccc(C2CC(O)(c3ccc(OCc4c(-c5c(Cl)cccc5Cl)noc4C4CC4)cc3Cl)C2)c1 (stereo not shown) [Example 5, 3-(3-(2-Chloro-4-((5-cyclopropyl-3-(2,6-dichlorophenyl)isoxazol-4-yl)methoxy)phenyl)-3-hydroxycyclobutyl)benzenesulfonamide]
0.025 to 0.1 µM | > 0.1 µM | – | – | CS(=O)(=O)c1cccc(C2CC(O)(c3ccc(OCc4c(-c5c(Cl)cccc5Cl)noc4C4CC4)cc3Cl)C2)c1 (stereo not shown) [Example 6, 1-(2-Chloro-4-((5-cyclopropyl-3-(2,6-dichlorophenyl)isoxazol-4-yl)methoxy)phenyl)-3-(3-(methylsulfonyl)phenyl)cyclobutanol]
< 0.025 µM | 0.025 to 0.1 µM | – | – | CC(C)n1nc(C(=O)O)cc1[C@H]1C[C@](O)(c2ccc(OCc3c(-c4c(Cl)cccc4Cl)noc3C3CC3)cc2Cl)C1 [Example 8, 5-((1s,3s)-3-(2-Chloro-4-((5-cyclopropyl-3-(2,6-dichlorophenyl)isoxazol-4-yl)methoxy)phenyl)-3-hydroxycyclobutyl)-1-isopropyl-1H-pyrazole-3-carboxylic Acid]
0.025 to 0.1 µM | 0.025 to 0.1 µM | – | – | CC(C)n1nc(C(=O)O)cc1[C@H]1C[C@@](O)(c2ccc(OCc3c(-c4c(Cl)cccc4Cl)noc3C3CC3)cc2Cl)C1 [Example 8A, 5-((1r,3r)-3-(2-Chloro-4-((5-cyclopropyl-3-(2,6-dichlorophenyl)isoxazol-4-yl)methoxy)phenyl)-3-hydroxycyclobutyl)-1-isopropyl-1H-pyrazole-3-carboxylate]
< 0.025 µM | 0.025 to 0.1 µM | – | – | Cn1nc(C(=O)O)c2ccc(C3CC(O)(c4ccc(OCc5c(-c6c(Cl)cccc6Cl)noc5C5CC5)cc4Cl)C3)cc21 (stereo not shown) [Example 10, 6-(3-(2-Chloro-4-((5-cyclopropyl-3-(2,6-dichlorophenyl)isoxazol-4-yl)methoxy)phenyl)-3-hydroxycyclobutyl)-1-methyl-1H-indazole-3-carboxylic Acid]
< 0.025 µM | > 0.1 µM | – | – | CC(C)n1nc(C(=O)NCC(=O)O)cc1C1CC(O)(c2ccc(OCc3c(-c4c(Cl)cccc4Cl)noc3C3CC3)cc2Cl)C1 (stereo not shown) [Example 14/1]
